According to patent US20130178448A1, “Treatment of Respiratory Disorders” (priority 2010, published 2013):

Columns and labels:
[1] = rat, in vivo, 4 h
Experimental: Vehicle and test compounds (Groups 1-7) were each administered orally (PO) to fasted rats. Each group included five animals. […] The animals were sacrificed four hours after dosing and gastric mucosal lesions were scored. A score of 50 percent or more (≧50%) relative to the aspirin-treated group (150 mg/kg PO, set as 100%) is considered positive in gastric irritation and is shown in parenthesis; and
Seven groups of rats, each group consisting of five animals, were each administered orally (PO) with test formulations and control compounds. […] Group 3 animals were treated with 150 mg/kg aspirin, and Group 4 animals were treated with 100 mg/kg of ibuprofen dissolved in 1% CMC vehicle.
The animals were sacrificed four hours after dosing with the test compound (or control vehicle) and gastric mucosal lesions were then scored according to the following criteria: 0=no lesions, 1=hyperemia, 2=one or two slight lesions, 3=more than two slight lesions or severe lesions, 4=very severe lesions (Herrerias et al., Dig. Dis. Sci., 2003). A score of 50 percent or more (≧50%) relative to the aspirin-treated group (150 mg/kg PO, set as 100%) was considered positive in gastric irritation and is shown in parenthesis in the table of FIG. 5.

[2] = test system: Influenza A/PR/8/34 (H1N1 virus); experiment: In vivo mouse viral challenge (weight loss and survival of influenza-challenged mice); set-up: species or system mice (C57BLK/6); settings: intraperitoneal, 335.6 μg/animal in 10 μl DMSO
Experimental: Five groups (n=10) of C57BLK/6 female mice (6-7 weeks old), were divided into five experimental groups containing ten animals each. On day 1, animals received an intranasal lethal dose (50 μl total, 25 μl nostril) of Influenza A/PR/8/34 under halothane induced anaesthesia.
The animals were weighed, and monitored for signs of infection daily up to day 6 when all animals were culled. FIGS. 1-4 represent the average weight loss per group and animal survival.
Using standard techniques as described above, mice were infected with a H1N1 virus which was allowed to become established in each of the subjects. Each test mouse was then treated with ibuprofen, either intraperitoneally (in DMSO) or orally (in the lipid/ethanol formulation, BC1054). The weight loss of both treated and untreated mice was then determined.

| SMILES | ulceration score relative to aspirin (150 mg/kg PO, set as 100%) [1] | percentage survival rate compared with control mice ([2]; single dose day 3, especially after day four, FIG. 2) | higher reduction in weight loss than in the control mice ([2]; single dose day 3 post-challenge, vs vehicle control, FIG. 1) |
| --- | --- | --- | --- |
| CC(=O)Oc1ccccc1C(=O)O [Aspirin] | 100% | – | – |
| CC(C)Cc1ccc(C(C)C(=O)O)cc1 (stereo not drawn) [ibuprofen] | – | lower percentage survival rate than the control mice | ~30% |
